Earlier results as cited in US6214381A, “Methazolamide composition and method of use” (Effcon, Inc., priority 1998, dated 2001).

Conditions: background statement

- water solubility: water-insoluble
SMILES: CC(=O)N=c1sc(S(N)(=O)=O)nn1C [Methazolamide, methazolamide]
